Take `CCNC(=O)c1nc(-c2ccc(C)c(C)c2)n(-c2cc(Cl)ccc2C)c1-c1cccc(Cl)c1` [Example 1, 1-(5-Chloro-2-methyl-phenyl)-5-(3-chloro-phenyl)-2-(3,4-dimethyl-phenyl)-1H-imidazole-4-carboxylic acid ethylamide]: the melting point – broadly, the temperature of the solid-liquid transition – lay in the range of 141 to 143 °C.
Turning to `Cc1ccc(-c2nc(C#N)c(-c3cccc(Cl)c3)n2-c2cc(Cl)ccc2C)cc1C` [Example 3, 1-(5-chloro-2-methyl-phenyl)-5-(3-chloro-phenyl)-2-(3,4-dimethyl-phenyl)-1H-imidazole-4-nitrile], the melting point turned out to be 218 °C.
`O=Cc1cc(-c2nc(C(=O)O)c(-c3ccc(F)c(Cl)c3)n2-c2cccc(Cl)c2F)cs1` [Example 293, 5-(3-Chloro-4-fluoro-phenyl)-1-(3-chloro-2-fluoro-phenyl)-2-(5-formyl-thiophen-3-yl)-1H-imidazole-4-carboxylic acid] came in with a melting point of 157 to 160 °C.
